Converted amounts (≈) assume the structure as drawn.
Columns and labels:
[1] = test system: chick embryo; assay: Chick embryo diss. assay (Table II); assay type: in vivo
Method: Using the chick embryo vitelline capillaries assay, compounds were tested for their ability to induce capillary regression. Each compound was applied in 0.1 ml of 15% Ficol 400 and PBS onto the embryo, and vascular regression was assessed after 60 minutes.

[2] = test system: S. aureus; assay: Antibiotic activity, MIC; assay type: cell-based; details: for MIC: Staphylococcus aureus
[3] = test system: E. Coli; assay: Antibiotic activity, MIC; assay type: cell-based; details: for MIC: Escherichia coli
[4] = test system: C. albicans; assay: Antibiotic activity, MIC; assay type: cell-based; details: for MIC: Candida albicans
[5] = test system: Xenopus tadpoles; assay: Tadpole assay; details: Xenopus tadpole assay

CC(CCC(CO)(OS(=O)(=O)O)C(C)C)[C@H]1CCC2C3C(CC[C@@]21C)[C@@]1(C)CC[C@H](NCCCNCCCCN)C[C@@H]1C[C@H]3O (stereo partly shown)
Minimum Effective Concentration, chick embryo diss. assay [1]: > 1 µg

CC(CCC(=O)O)[C@H]1CCC2C3C(CC[C@@]21C)[C@@]1(C)CC[C@@H](NCCCNCCCCN)CC1C[C@H]3O (single isomer, unassigned)
Minimum Effective Concentration, chick embryo diss. assay [1]: 0.01 µg

COC(=O)CCC(C)[C@H]1CCC2C3CC[C@@H]4C[C@H](NCCCNCCCCNCCCN)CC[C@]4(C)C3C[C@H](O)[C@@]21C (stereo partly shown) [drawing 72]
MIC [2]: 2 µg/mL (≈ 3.38 µM)
MIC [3]: 16 µg/mL (≈ 27.1 µM)
MIC [4]: 8 µg/mL (≈ 13.5 µM)

COC(=O)CCC(C)[C@H]1CCC2C3C(CC[C@@]21C)[C@@]1(C)CC[C@@H](NCCN)C[C@H]1C[C@H]3O (stereo partly shown) [drawing 59]
MIC [2]: 16 µg/mL (≈ 35.7 µM)
MIC [3]: 16 µg/mL (≈ 35.7 µM)
MIC [4]: 16 µg/mL (≈ 35.7 µM)

COC(=O)CC[C@@H](C)[C@H]1CC[C@H]2[C@@H]3CC[C@H]4C[C@H](NCCCNCCCCNCCCN)CC[C@]4(C)[C@H]3CC[C@]12C [Compound 458]
functional similarity in tadpole assay [5]: pharmacologic activity similar to that seen for FX 3

CC(CCC(=O)O)[C@H]1CCC2C3CC[C@@H]4C[C@H](NCCCNCCCCNCCCN)CC[C@]4(C)C3C[C@H](O)[C@@]21C (stereo partly shown) [drawing 107]
Minimum Effective Concentration, chick embryo diss. assay [1]: > 1 µg

COC(=O)CCC(C)[C@H]1CCC2C3CC[C@@H]4C[C@H](NCCN)CC[C@]4(C)C3C[C@H](O)[C@@]21C (stereo partly shown) [drawing 65]
MIC [2]: 8 µg/mL (≈ 17.8 µM)
MIC [3]: 8 µg/mL (≈ 17.8 µM)
MIC [4]: 32 µg/mL (≈ 71.3 µM)

COC(=O)CCC(C)[C@H]1CCC2C3C[C@@H](O)[C@H]4C[C@@H](NCCCNCCCCNCCCN)CC[C@]4(C)C3CC[C@@]21C (stereo partly shown) [drawing 101]
Minimum Effective Concentration, chick embryo diss. assay [1]: 1 µg

COC(=O)CC[C@@H](C)[C@H]1CC[C@H]2[C@@H]3[C@H](O)C[C@@H]4C[C@H](NCCN)CC[C@]4(C)[C@H]3CC[C@]12C [Compound 410]
functional similarity in tadpole assay [5]: functionally similar to compound 1437

COC(=O)CC[C@@H](C)[C@H]1CC[C@H]2[C@@H]3C[C@@H](O)[C@H]4C[C@H](NCCCNCCCCNCCCN)CC[C@]4(C)[C@H]3CC[C@]12C [Compound 465]
functional similarity in tadpole assay [5]: pharmacologic activity similar to that seen for FX 3

COC(=O)CC[C@@H](C)[C@H]1CC[C@H]2[C@@H]3CC[C@@H]4C[C@H](NCCN)CC[C@]4(C)[C@H]3C[C@H](O)[C@]12C [Compound 416]
functional similarity in tadpole assay [5]: functionally similar to compound 1437

COC(=O)CC[C@@H](C)[C@H]1CC[C@H]2[C@@H]3C[C@@H](O)[C@H]4C[C@@H](NCCN)CC[C@]4(C)[C@H]3CC[C@]12C [Compound 432]
functional similarity in tadpole assay [5]: functionally similar to compound 1437

CC(CCCOS(=O)(=O)O)[C@H]1CCC2C3CC[C@H]4C[C@@H](NCCCNCCCCN)CC[C@]4(C)C3CC[C@@]21C (stereo partly shown)
Minimum Effective Concentration, chick embryo diss. assay [1]: > 10 µg

C[C@H](CCC(=O)O)[C@H]1CC[C@H]2[C@@H]3C[C@@H](O)[C@H]4C[C@@H](NCCN)CC[C@]4(C)[C@H]3CC[C@]12C [Compound 433]
functional similarity in tadpole assay [5]: functionally similar to compound 1437

CC(C)CCC[C@@H](C)[C@H]1CC[C@H]2[C@@H]3CC[C@H]4C[C@H](NCCCN5CCCCN=C5N)CC[C@]4(C)[C@H]3CC[C@]12C
MIC Values [2]: 2 µg/mL (≈ 3.7 µM)
MIC Values [3]: > 256 µg/mL
MIC Values [4]: 32 µg/mL (≈ 59.2 µM)

CC(C)CCCC(C)[C@H]1CCC2C3C(CC[C@@]21C)[C@@]1(C)CC[C@@H](NCCCNCCCCN)C[C@@H]1C[C@H]3O (stereo partly shown) [drawing 56]
MIC [2]: 4 µg/mL (≈ 7.52 µM)
MIC [3]: 32 µg/mL (≈ 60.2 µM)
MIC [4]: 2 µg/mL (≈ 3.76 µM)

CC(CCC(=O)O)[C@H]1CCC2C3C[C@@H](O)[C@H]4C[C@@H](NCCN)CC[C@]4(C)C3CC[C@@]21C (stereo partly shown) [drawing 69]
MIC [2]: > 256 µg/mL
MIC [3]: > 256 µg/mL
MIC [4]: > 256 µg/mL

CC(CCC(=O)O)[C@H]1CCC2C3C[C@@H](O)[C@H]4C[C@@H](NCCN)CC[C@]4(C)C3CC[C@@]21C (stereo partly shown) [drawing 105]
Minimum Effective Concentration, chick embryo diss. assay [1]: 1 µg

CC(C)CCC[C@@H](C)[C@H]1CC[C@H]2[C@@H]3[C@H](O)C[C@H]4C[C@H](N)CC[C@]4(C)[C@H]3CC[C@]12C [Compound 1363]
functional similarity in tadpole assay [5]: pharmacologic activity similar to Fraction 1
potency in tadpole assay relative to Fraction 1 [5]: potencies comparable to that of Fraction 1

COC(=O)CCC(C)[C@H]1CCC2C3C[C@@H](O)[C@H]4C[C@H](NCCN)CC[C@]4(C)C3CC[C@@]21C (stereo partly shown) [drawing 103]
Minimum Effective Concentration, chick embryo diss. assay [1]: > 1 µg

CC(COS(=O)(=O)O)C(=O)CC[C@@H](C)[C@H]1CC[C@H]2[C@@H]3[C@H](O)C[C@H]4C[C@@H](NCCCNCCCCN)CC[C@]4(C)[C@H]3CC[C@]12C (stereo partly shown)
MIC [2]: 8 µg/mL (≈ 12.5 µM)

COC(=O)CCC(C)[C@H]1CCC2C3C[C@@H](O)[C@H]4C[C@H](NCCN)CC[C@]4(C)C3CC[C@@]21C (stereo partly shown) [drawing 67]
MIC [2]: 16 µg/mL (≈ 35.7 µM)
MIC [3]: 32 to 64 µg/mL (≈ 71.3 to 143 µM)
MIC [4]: 8 µg/mL (≈ 17.8 µM)

CC(C)CCCC(C)[C@H]1CCC2C3C(CC[C@@]21C)[C@@]1(C)CC[C@@H](N)C[C@@H]1C[C@H]3O (stereo partly shown)
MIC [2]: 2 µg/mL (≈ 4.95 µM)
MIC [3]: > 256 µg/mL
MIC [4]: 2 µg/mL (≈ 4.95 µM)
